Data set [1] deals with cAMP in the platelets. Kind of data set: cAMP concentration in platelets stimulated with BPS (EIA kit). It is filed as cell-based, human (healthy subject). Particulars: for cyclic AMP (× basal level): SQ-29548, five cases. As to the method:
A blood specimen taken from a healthy subject was centrifuged to thereby separate platelet rich plasma (PRP). To PRP was added SQ-29548, a TXA2 antagonist, and then Compound 1 was added thereto. After 1 minute, BPS (100 nM) was added to PRP, and then the reaction was stopped by 5% TCA. Thereafter, cAMP in the platelets was extracted and the cAMP concentration was determined with an EIA kit (BIOTRAK cAMP EIA SYSTEM, Amersham). The experiment was carried out on one group composed of five cases. The results are shown in Table 5 (*: P<0.05, Paired t-test).

Data set [2] relates to platelets (platelet rich plasma). As to the kind of experiment: Antagonistic Action on Inhibition of Platelet Aggregation (ADP-induced, SQ-29548 present, BPS or PGD2 as inhibitor). It counts as cell-based, human (healthy subject). Particulars: for IC50: Homo sapiens, Platelet, ADP-induced aggregation, SQ-29548. As to the method:
A blood specimen sampled from a healthy subject was centrifuged to thereby separate platelet rich plasma (PRP) and platelet poor plasma (PPP). To the PRP was added SQ-29548, a TXA2 antagonist, and then Compound 1 was added one minute after, beraprost sodium (BPS), a prostacyclin derivative, or prostaglandin D2 (PGD2) was added to the PRP, and 1 minute thereafter, aggregation was induced by ADP. The 50% inhibitory concentration (IC50) of BPS or PGD2 was then calculated from the results. The experiment was performed on one group composed of three specimens. The results are set forth in Tables 3 and 4 (*: P<0.05, Paired t-test).

For data set [3] the test system is unchanged. As to the kind of experiment: Action on Platelet Aggregation (3): ADP-induced platelet aggregation in the presence of SQ-29548. It counts as cell-based, human (healthy subject). Particulars: concentration within the range of 0.1 to 10 μM, Control 38 ± 4.9, *P<0.05 paired t-test. As for the experimental part:
A blood specimen taken from a healthy subject was centrifuged to thereby separate platelet rich plasma (PRP) and platelet poor plasma (PPP). To PRP was added SQ-29548, a TXA2 antagonist, and 1 minute after, platelet aggregation was induced by ADP, and immediately after induction, any of Compounds 2 to 4 having the following structural formulae was added to PRP. The experiment was performed on one group comprising three subjects. The results are set forth in Table 6 (*: P<0.05, Paired t-test).
Compound 2 to 4 were respectively used at a concentration within the range of 0.1 to 10 μM.

Data set [4] has the same test system. As to the kind of experiment: Action on Platelet Aggregation (1): aggregation induction in PRP in the presence of SQ-29548. It counts as cell-based, human (healthy subject). To be noted: for Number of Aggregation Induction: PRP with SQ-29548, three samples. As to the method:
A blood specimen sampled from a healthy subject was centrifuged to thereby separate platelet rich plasma (PRP) and platelet poor plasma (PPP). The agent SQ-29548 (refer to Prostaglandins, 1985;29;785), a TXA2 antagonist, was added to PRP, and 1 minute later, a test drug having the following structure (hereinafter referred to as "Compound 1") was added thereto. The experiment was conducted on one group comprising three samples.

The test system is the same in data set [5]. As to the kind of experiment: Action on Platelet Aggregation (2): ADP-induced platelet aggregation in the presence of SQ-29548. It is filed as cell-based, human (healthy subject). As for the experimental part: A blood specimen sampled from a healthy subject was centrifuged to thereby separate platelet rich plasma (PRP) and platelet poor plasma (PPP). SQ-29548, a TXA2 antagonist, was added to PRP, and 1 minute later, platelet aggregation was induced by ADP, and immediately after induction, Compound 1 was added thereto. The experiment was carried out on one group comprising three samples. The test results are shown in Table 2 (*: P<0.05, Paired t-test).

The subject of data set [6] is platelets. To be noted: background; cited from earlier work.
For data set [7] the following is noted: background; cited from earlier work.
The conditions of data set [8]: cited from earlier work.
The conditions of data set [9]: cited from earlier work. The source holds these as a separate data set.

Usually IC50 stands for the point on the concentration scale where inhibition reaches its midpoint.

The structures appear in SMILES notation. Like-named read-outs stand apart in the source and are kept apart here.

As to `CC#CCC(C)[C@H](O)/C=C/[C@@H]1[C@H]2c3cccc(CCCC(=O)O)c3O[C@H]2C[C@H]1O` (mixture of isomers) [BPS, beraprost sodium], in data set [1] (BPS 100 nM, Compound 1 0 μM), the “cyclic AMP (× basal level)” value stood at 8.46 ± 1.8 × basal level. Also, the 50% inhibitory concentration (IC50) in data set [2] (Compound 1 0 μM, read-out: IC50 of BPS) came out at 7.99 ± 1.4 nM; in [2] (in the presence of Compound 1 0.1 μM, read-out: IC50 of BPS), 21.1 ± 4.7 nM; in [2] (in the presence of Compound 1 1 μM, *P<0.05, read-out: IC50 of BPS), 36.7 ± 7.4 nM.

As for `CCCCC(C)(C)[C@H](O)/C=C/[C@@H]1[C@H]2c3cccc(CCC(=O)O)c3O[C@H]2C[C@H]1O` (relative stereo) [Compound 2], in [3], the “Platelet Aggregation Rate” value amounted to 45 ± 6.1%.

On to `CC(C)(Oc1ccccc1)[C@H](O)/C=C/[C@@H]1[C@H]2c3cccc(CCC(=O)O)c3O[C@H]2C[C@H]1O` (relative stereo) [Compound 4], for which the “Platelet Aggregation Rate” value in data set [3] is listed as 54 ± 4.1%.

Take `CC(C)(Oc1ccccc1)[C@H](O)/C=C/[C@@H]1[C@H]2c3cccc(CCC(=O)O)c3O[C@H]2C[C@H]1O` [Compound 1]: the “Number of Aggregation Induction” value in data set [4] (Compound 1 0.1 μM), in data set [4] (Compound 1 1 μM) and in data set [4] (Compound 1 10 μM) was 0 in each case. Besides, the “induction of platelet aggregation (in words)” value in data set [4] (in the presence of SQ-29548, 0.1-10 μM) is recorded as “did not induce platelet aggregation”. Moreover, the “effect on cAMP production (in words)” value in data set [1] (BPS 100 nM, Compound 1 0.1 and 1 μM) is given as “inhibited cAMP production of BPS in platelets”. The “cyclic AMP (× basal level)” value came to 6.45 ± 1.4 × basal level in data set [1] (Compound 1 0.1 μM with BPS 100 nM, *P<0.05) and 3.98 ± 0.9 × basal level in [1] (Compound 1 1 μM with BPS 100 nM, *P<0.05). Further, the “Platelet Aggregation Rate” value in [5] (Compound 1 0.1 μM, without Compound 1: 52.0 ± 2.5, *P<0.05 paired t-test) was found to be 61.3 ± 2.9%; in [5] (Compound 1 1 μM, without Compound 1: 52.0 ± 2.5, asterisk not given) it was 70.0 ± 3.0%. The “effect on aggregation of platelets (in words)” value in data set [5] (Compound 1 0.1 and 1 μM) is on record as “enhanced aggregation of platelets”. The “antagonism of inhibition of platelet aggregation (in words)” value in data set [2] (Compound 1 0.1 and 1 μM against BPS or PGD2) is “physiologically antagonized inhibitory actions of BPS and PGD2 on platelet aggregation”.

With `O=C(O)CCc1cccc2c1OC1CC(O)C(C=CC(O)COc3ccccc3)C21` (centres unmarked) [Compound 3], the “Platelet Aggregation Rate” value in [3] amounted to 43 ± 5.3%.

`CCCCC[C@H](O)/C=C/[C@@H]1[C@@H](CC(=O)CCCCC(=O)O)[C@@H](O)C[C@H]1O` [Compound 6-oxo-PGF1a, 6-oxo-PGF1a]: the “known activity (in words)” value in data set [6] is on record as “almost no physiological activity”.

Turning to `NC(=O)CC[C@@H]1NC(=O)[C@H](Cc2ccccc2)NC(=O)[C@H](Cc2ccc(O)cc2)NC(=O)CCSSC[C@@H](C(=O)N2CCC[C@H]2C(=O)N[C@H](CCCN=C(N)N)C(=O)NCC(N)=O)NC(=O)[C@H](CC(N)=O)NC1=O` [DDAVP, 1-diamino 8-D-arginine vasopressin], the “adverse drug reactions (in words)” value in data set [7] is “may induce arterial thrombosis and/or hyponatremia”.

With `CCCCC[C@H](O)/C=C/[C@H]1C(=O)C[C@H](O)[C@@H]1C/C=C\CCCC(=O)O` [PGD2, prostaglandin D2], the IC50 in [2] (Compound 1 0 μM, read-out: IC50 of PGD2) is 38.8 ± 2.5 nM; in [2] (in the presence of Compound 1 0.1 μM, read-out: IC50 of PGD2) it was 71.2 ± 8.2 nM; in data set [2] (in the presence of Compound 1 1 μM, *P<0.05, read-out: IC50 of PGD2), 194 ± 28 nM.

With `CCCCC[C@H](O)/C=C/[C@@H]1[C@H]2C/C(=C/CCCC(=O)O)O[C@H]2C[C@H]1O` [PGI2, prostaglandin I2], in data set [8], the “stability and duration of activity in vivo (in words)” value is “unstable in vivo and its activity is not long-lasting”. In data set [9], the “stability in neutral aqueous solution (in words)” value is “extremely unstable even in a neutral aqueous solution”. Moreover, the “known activity (in words)” value in [6] was “strong antiplatelet activity and telangiectatic activity”.
